Data published in patent publication US9422248B2 (University of Iowa Research Foundation, priority 2012, dated 2016).
Several values for one entry are separate records, joined by “and”; a condition that tells them apart may be missing. Equal entries are not always repeated. Where two headings read alike, the source gives them in different places.

What was measured:
rotorod test = test: Toxicity by the rotorod test; type: in vivo; conditions: for evidence of toxicity: doses up to 300 mg/kg
Source text: All compounds (FIG. 1) were screened in three whole mouse models: the maximal electroshock model (MES), the scMET test (pentylenetetrazole, Metrazol), and the 6 Hz psychomotor seizure model of partial epilepsy (32 mA). Adult male CF No 1 albino mice (26-30 g) were used for the 6 Hz test and 18-25 g mice were used in the MES and scMet tests. The animals are housed, fed, and handled in a manner consistent with the recommendations in the National Council Publication, “Guide for the Care and Use of Laboratory Animals”. […] All compounds were administered ip in polyethylene glycol, 30%.
The 6 Hz test (also known as the minimal clonic seizure, or psychomotor test) involved delivering a corneal stimulus of 32 mA for 3 s. […] Seizures consist of a minimal clonic phase followed by stereotyped automatistic behaviors. Animals not showing such behaviors were considered protected. Toxicity was determined by the rotorod test. For this test, the animal is placed on a rotorod at 6 rpm following dosing. The animal is considered toxic if it falls off the rotorod three times in a 1 min period. The ED50, TD50 and confidence intervals were determined by probit analysis.

6 Hz (32 mA) model = test: 6 Hz (32 mA) psychomotor seizure model of partial epilepsy; type: in vivo, mouse; conditions: for Protective effects, number of animals protected/number of animals tested / ED50: 6 Hz (32 mA); for Protective effects, number of animals protected/number of animals tested: 100 mg/kg ip; for ED50: ip, probit analysis
Source text: (§1) All compounds (FIG. 1) were screened in three whole mouse models: the maximal electroshock model (MES), the scMET test (pentylenetetrazole, Metrazol), and the 6 Hz psychomotor seizure model of partial epilepsy (32 mA). Adult male CF No 1 albino mice (26-30 g) were used for the 6 Hz test and 18-25 g mice were used in the MES and scMet tests. The animals are housed, fed, and handled in a manner consistent with the recommendations in the National Council Publication, “Guide for the Care and Use of Laboratory Animals”. The animal studies were performed by the NINDS Anticonvulsant Screening Program under IACUC number 09-12014. All compounds were administered ip in polyethylene glycol, 30%.
The 6 Hz test (also known as the minimal clonic seizure, or psychomotor test) involved delivering a corneal stimulus of 32 mA for 3 s. This current elicits psychomotor seizures in 97% of untreated animals. Seizures consist of a minimal clonic phase followed by stereotyped automatistic behaviors. Animals not showing such behaviors were considered protected. Toxicity was determined by the rotorod test. For this test, the animal is placed on a rotorod at 6 rpm following dosing. The animal is considered toxic if it falls off the rotorod three times in a 1 min period. The ED50, TD50 and confidence intervals were determined by probit analysis.

[1] = test system: scMET model (pentylenetetrazole, Metrazol); test: scMET test (subcutaneous Metrazol); type: in vivo, mouse; conditions: Mus musculus, scMET, read-out: number of animals protected/number of animals tested; for responders at 30 mg/kg: 30 mg/kg ip; for responders at 100 mg/kg: 100 mg/kg ip; for responders at 300 mg/kg: 300 mg/kg ip
Source text: as §1
(§2) The MES model, which generates generalized tonic-clonic seizures, involved pretreating mice with experimental compound, and administering 60 Hz of alternating current (50 mA) for 2 s via corneal electrodes. Prior to current administration, the animal's corneas were treated topically with 1% tetracaine. Animals are considered protected if the hindlimb tonic extensor component is absent. The scMET test was done by pretreating mice with experimental compound and administering 85 mg/kg Metrazol into the loose folds of the skin in the midline of the neck. Eighty-five mg/kg Metrazol is the dose that causes seizures in 97% (CD97) of control animals.

[2] = test system: maximal electroshock (MES) model; test: maximal electroshock (MES) model; type: in vivo, mouse; conditions: for responders at 30 mg/kg / responders at 100 mg/kg / responders at 300 mg/kg: Mus musculus, MES; for responders at 30 mg/kg: 30 mg/kg ip; for responders at 30 mg/kg / responders at 300 mg/kg: read-out: number of animals protected/number of animals tested; for responders at 100 mg/kg: 100 mg/kg ip, read-out: number of animals protected/number of animals tested (converted); for responders at 300 mg/kg: 300 mg/kg ip
Source text: as §1, §2

For `CCc1cc(C(O)C(F)(F)F)ccc1O` (centres unmarked) [RM166, 2-Ethyl-4-(2,2,2-trifluoro-1-hydroxy-ethyl)-phenol], the “Toxicity, animals/number of animals tested” value (“Toxicity, animals/number” below) (rotorod test; dose 100 mg/kg ip, 0.5 h) was 0/8, the “Toxicity, animals/number” value (rotorod test; dose 100 mg/kg ip, 4 h) was 0/4 and the “Toxicity, animals/number” value (rotorod test; dose 30 ip, 0.5 h) was 0/4. The “Toxicity, animals/number” value (rotorod test; dose 30 ip, 4 h) was 0/2, the “Toxicity, animals/number” value (rotorod test; dose 300 ip, 0.5 h) was 0/4 and the “Toxicity, animals/number” value (rotorod test; dose 300 ip, 4 h) was 0/2. The “evidence of toxicity” value (rotorod test) was “Neither RM170 nor RM166 showed any evidence of toxicity”, the “protective effects in the 6 Hz test” value (6 Hz (32 mA) model; 100 mg/kg, any time point from 0.25 to 4 h) was “no protective effects” and the “Protective effects, number of animals protected/number of animals tested” value (6 Hz (32 mA) model; 0.25 h) was 0/4. For the same compound, the “Protective effects, number of animals protected/number of animals tested” value (6 Hz (32 mA) model; 0.5 h) was 0/4, the “Protective effects, number of animals protected/number of animals tested” value (6 Hz (32 mA) model; 1 h) was 0/4 and the “Protective effects, number of animals protected/number of animals tested” value (6 Hz (32 mA) model; 2 h) was 0/4. For the same compound, the “Protective effects, number of animals protected/number of animals tested” value (6 Hz (32 mA) model; 4 h) was 1/4, the responders at 30 mg/kg ([1]; 0.5 h) was 0% and the responders at 30 mg/kg ([1]; 4 h) was 0%. It also gave a responders at 100 mg/kg ([1]; 0.5 h) of 0%, a responders at 100 mg/kg ([1]; 4 h) of 0% and a responders at 300 mg/kg ([1]; 0.5 h) of 0%. It also gave a responders at 300 mg/kg ([1]; 4 h) of 0%, a responders at 30 mg/kg ([2]; 0.5 h) of 0% and a responders at 30 mg/kg ([2]; 4 h) of 0%. The responders at 100 mg/kg ([2]; 0.5 h) was 0%, the responders at 100 mg/kg ([2]; 4 h) was 0% and the responders at 300 mg/kg ([2]; 0.5 h) was 0%. For the same compound, the responders at 300 mg/kg ([2]; 4 h) was 0% and the “MES protection” value ([2]; any dose (30-300 mg/kg ip)) was “no MES protection”.

In the case of `Cc1cc(C(O)C(F)(F)F)ccc1O` (centres unmarked) [RM170, 2-Methyl-4-(2,2,2-trifluoro-1-hydroxy-ethyl)-phenol], the “Toxicity, animals/number” value (rotorod test; dose 100 mg/kg ip, 0.25 h) is reported as 0/3, the “Toxicity, animals/number” value (rotorod test; dose 100 mg/kg ip, 0.5 h) is reported as 0/8 and the “Toxicity, animals/number” value (rotorod test; dose 100 mg/kg ip, 1 h) is reported as 0/3. For the same compound, the “Toxicity, animals/number” value (rotorod test; dose 100 mg/kg ip, 2 h) was 0/3, the “Toxicity, animals/number” value (rotorod test; dose 100 mg/kg ip, 4 h) was 0/4 and the “Toxicity, animals/number” value (rotorod test; dose 100 mg/kg ip, 6 h) was 0/3. The “Toxicity, animals/number” value (rotorod test; dose 30 ip, 0.5 h) was 0/4, the “Toxicity, animals/number” value (rotorod test; dose 30 ip, 4 h) was 0/2 and the “Toxicity, animals/number” value (rotorod test; dose 300 ip, 0.5 h) was 0/4. The “Toxicity, animals/number” value (rotorod test; dose 300 ip, 4 h) was 0/2, the “evidence of toxicity” value (rotorod test) was “Neither RM170 nor RM166 showed any evidence of toxicity” and the “Protective effects, number of animals protected/number of animals tested” value (6 Hz (32 mA) model; 0.25 h) was 0/4. For the same compound, the “Protective effects, number of animals protected/number of animals tested” value (6 Hz (32 mA) model; 0.5 h) was 0/4, the “Protective effects, number of animals protected/number of animals tested” value (6 Hz (32 mA) model; 1 h) was 2/4 and the “Protective effects, number of animals protected/number of animals tested” value (6 Hz (32 mA) model; 2 h) was 1/4. The “Protective effects, number of animals protected/number of animals tested” value (6 Hz (32 mA) model; 4 h) was 1/4, the “animals in which seizures were inhibited” value (6 Hz (32 mA) model; 6 Hz, 100 mg/kg, any time point from 0.25 to 4 h) was “no more than 2 of 4” and the responders at 30 mg/kg ([1]; 0.5 h) was 0%. It also gave a responders at 30 mg/kg ([1]; 4 h) of 0%, a responders at 100 mg/kg ([1]; 0.5 h) of 0% and a responders at 100 mg/kg ([1]; 4 h) of 0%. The responders at 300 mg/kg ([1]; 0.5 h) was 0%, the responders at 300 mg/kg ([1]; 4 h) was 0% and the “MES protection” value ([2]; 300 mg/kg dose) was “some protection”. For the same compound, the “MES protection, time points after dosing” value ([2]; 300 mg/kg dose) was “protection at both 0.5 and 4 h”, the responders at 30 mg/kg ([2]; 0.5 h) was 0% and the responders at 100 mg/kg ([2]; 0.25 h) was 0%. For the same compound, the responders at 100 mg/kg ([2]; 0.5 h) was 0%, the responders at 100 mg/kg ([2]; 1 h) was 0% and the responders at 100 mg/kg ([2]; 2 h) was 0%. The responders at 100 mg/kg ([2]; 4 h) was 0%, the responders at 100 mg/kg ([2]; 6 h) was 0% and the responders at 300 mg/kg ([2]; 0.5 h) was 100%. It also gave a responders at 300 mg/kg ([2]; 4 h) of 100%.

For `CC(C)c1cc(C(O)C(F)(F)F)cc(Br)c1O` (centres unmarked) [RM122, 2-Bromo-6-isopropyl-4-(2,2,2-trifluoro-1-hydroxy-ethyl)-phenol], the TD50 (rotorod test; rotorod, ip, probit analysis) was 403 mg/kg and 403.12 mg/kg, the ED50 (6 Hz (32 mA) model) was 112.45 mg/kg and the “complete protection, animals” value (6 Hz (32 mA) model; 6 Hz, 100 mg/kg, one or more time points from 0.25 or 1 h) was 4 of 4. For the same compound, the ED50 (6 Hz (32 mA) model; Mus musculus, read-out: ED50) was 112 mg/kg, the responders at 30 mg/kg ([1]; 0.5 h) was 0% and the responders at 30 mg/kg ([1]; 4 h) was 0%. The responders at 100 mg/kg ([1]; 0.5 h) was 0%, the responders at 100 mg/kg ([1]; 4 h) was 0% and the responders at 300 mg/kg ([1]; 0.5 h) was 0%. The responders at 300 mg/kg ([1]; 4 h) was 0%, the responders at 30 mg/kg ([2]; 0.5 h) was 0% and the responders at 30 mg/kg ([2]; 4 h) was 0%. The responders at 100 mg/kg ([2]; 0.5 h) was 0%, the responders at 100 mg/kg ([2]; 4 h) was 0% and the responders at 300 mg/kg ([2]; 0.5 h) was 0%. For the same compound, the responders at 300 mg/kg ([2]; 4 h) was 0% and the “MES protection” value ([2]; any dose (30-300 mg/kg ip)) was “no MES protection”.
